Patent US5118811A, “Amino acid derivatives possessing prolyl endopeptidase-inhibitory activities” (Japan Tobacco Inc., priority 1989, dated 1992)

What was measured:
[1] = target: T1, prolyl endopeptidase (Rattus norvegicus, UniProt O70196); assay: Prolyl Endopeptidase-Inhibitory Activity; assay type: biochemical; details: for inhibition at 0.01 µM: 1 × 10^-8 M; for inhibition at 0.01 µM / inhibition at 10 µM / inhibition at 1 µM: read-out: Inhibition rate, prolyl endopeptidase; for IC50: prolyl endopeptidase extracted from rat brain, pH 7.0, 30° C., preincubated 30 minutes, 1 hour; for inhibition at 10 µM: 1 × 10^-5 M; for inhibition at 1 µM: 1 × 10^-6 M
T1 construct: prolyl endopeptidase extracted from rat brain; from tissue; host or cells: rat brain
Experimental: A mixture of a 0.1M potassium sodium phosphate buffer (pH 7.0) (2675 μl), a solution of the compounds of the present invention in a 0.1M potassium sodium phosphate buffer (pH 7.0) (100 μl) and a solution of prolyl endopeptidase extracted from rat brain in a 25 mM sodium phosphate buffer (100 μl) [123 unit/1, pH 6.8, containing 1 mM dithiothreitol and 0.5 mM EDTA, prepared by the method described in J. Neurochem., 35, 527 (1980)] was preincubated at 30° C. for 30 minutes. Thereto was added a 0.2 mM solution of 7-(N-succinyl-glycyl-prolyl)-4-methylcoumarinamide (Peptide Institute, INC.) in a 0.1M potassium sodium phosphate buffer (pH 7.0) (125 μl), and the mixture was incubated at 30° C. for 1 hour. The reaction mixture was immersed in ice (0° C.) to terminate the reaction, and the fluorescence (a1) was determined ten minutes later (excitation at 370 nm and emission at 440 nm). Concurrently, there were conducted the experiment wherein, in the above system, the prolyl endopeptidase solution was substituted for a 25 mM sodium phosphate buffer (pH 6.8, containing 1 mM dithiothreitol and 0.5 mM EDTA) and the experiment wherein the solution of the compounds of the present invention was also substituted for a 0.1M potassium sodium phosphate buffer (pH 7.0). Each fluorescence (a2 and a3) was also determined respectively [See Tanpakushitsu Kakusan Koso, 29, 127 (1984)]. The prolyl endopeptidase-inhibition rate was calculated by the following formula, and IC50, a concentration of a compound producing 50% inhibition, was estimated by semilogarithmic graph paper. [formula]

[2] = target: T2, trypsin (Bos taurus, UniProt P00760); assay: Trypsin-Inhibitory Activity; assay type: biochemical, bovine; details: read-out: Inhibition rate, trypsin; for inhibition at 0.01 µM: 1 × 10^-8 M; for inhibition at 10 µM: 1 × 10^-5 M; for inhibition at 1 µM: 1 × 10^-6 M
T2 construct: purchased Sigma; host or cells: bovine pancreas
T2 sequence (P00760 24-246): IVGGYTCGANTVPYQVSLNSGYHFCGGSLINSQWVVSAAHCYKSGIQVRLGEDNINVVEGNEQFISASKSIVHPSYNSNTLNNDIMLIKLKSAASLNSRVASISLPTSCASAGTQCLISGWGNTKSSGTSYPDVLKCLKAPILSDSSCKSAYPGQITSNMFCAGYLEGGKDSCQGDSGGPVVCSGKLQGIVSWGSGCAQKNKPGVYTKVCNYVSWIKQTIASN
Experimental: In the present invention, a 50 mM Tris-HCl buffer (pH 8.0) was employed as a buffer for measurement.
To a mixture of the above-mentioned buffer (850 μl), a solution of the compounds of the present invention in the same buffer (50 μl) and a 0.02 μM solution of trypsin (derived from bovine pancreas, Sigma) in the same buffer (50 μl) was added a 200 μM solution of 7-(prolyl-phenylaranyl-arginyl)-4-methylcoumarinamide (Peptide Institute, Inc.) in the same buffer (50 μl), and the mixture was incubated at 30° C. for 1 hour. The reaction mixture was immersed in ice (0° C.) to terminate the reaction, and the fluorescence (b1) was determined 1 hour later (excitation at 370 nm and emission at 440 nm). Concurrently, there were conducted the experiment wherein, in the system above, the trypsin solution was substituted for a buffer alone, and the experiment wherein the solution of the compounds of the present invention was also substituted for a buffer above. Each fluorescence (b2 and b3) was also determined respectively.
(§1) Using the fluorescence x1, x2 and x3 measured in the above-mentioned manner, the inhibitory rate against various proteases was calculated by the following formula where x stands for b, c, d, e or f: [formula]

[3] = target: T3, chymotrypsin (Bos taurus, UniProt P00766); assay: Chymotrypsin-Inhibitory Activity; assay type: biochemical, bovine; details: read-out: Inhibition rate, chymotrypsin; for inhibition at 0.01 µM: 1 × 10^-8 M; for inhibition at 10 µM: 1 × 10^-5 M; for inhibition at 1 µM: 1 × 10^-6 M
T3 construct: purchased Sigma; host or cells: bovine pancreas
Experimental: (§2) Similarly, by following the procedure mentioned above, but employing a 50 mM Tris-HCl buffer (pH 8.0) as a buffer for measurement, a 0.2 μM solution of chymotrypsin (derived from bovine pancrease, Sigma) in the same buffer as an enzyme solution and a 200 μM solution of 7-(N-succinyl-leucyl-leucyl-valyl-tyrosyl)-4-methylcoumarinamide (Peptide Institute, Inc.) in the same buffer as a substrate solution. Each fluorescence (c1, c2 and c3) was also determined, respectively.
as §1

[4] = test system: leucine aminopeptidase; assay: Leucine Aminopeptidase-Inhibitory Activity; assay type: biochemical, swine
Experimental: as §2, with “leucine aminopeptidase” for “chymotrypsin”, “swine kidney,” for “bovine pancrease,”, “7-(leucyl-4-methylcoumarinamide” for “7-(N-succinyl-leucyl-leucyl-valyl-tyrosyl)-4-methylcoumarinamide”, “(d1, d2” for “(c1, c2”, “d3)” for “c3)”
as §1

[5] = target: T4, elastase (Sus scrofa, UniProt P00772); assay: Elastase-Inhibitory Activity; assay type: biochemical, swine; details: read-out: Inhibition rate, elastase; for inhibition at 0.01 µM: 1 × 10^-8 M; for inhibition at 10 µM: 1 × 10^-5 M; for inhibition at 1 µM: 1 × 10^-6 M
T4 construct: purchased Sigma; host or cells: swine pancreas
Experimental: Similarly, by following the procedure mentioned above, but employing a 1 mM Tris-HCl buffer (pH 8.5) as a buffer for measurement, a 0.2 μM solution of elastase (derived from swine pancreas, Sigma) in the same buffer as an enzyme solution and a 200 μM solution of 7-(N-succinyl-aranyl-prolyl-aranyl)-4-methylcoumarinamide (Peptide Institute, Inc.) in the same buffer as a substrate solution. Each fluorescence (e1, e2 and e3) was also determined, respectively.
as §1

[6] = target: T5, cathepsin B (Bos taurus, UniProt P07688); assay: Cathepsin B-Inhibitory Activity; assay type: biochemical, bovine; details: read-out: Inhibition rate, cathepsin B; for inhibition at 0.01 µM: 1 × 10^-8 M; for inhibition at 10 µM: 1 × 10^-5 M; for inhibition at 1 µM: 1 × 10^-6 M
T5 construct: purchased Sigma; host or cells: bovine spleen
Experimental: Similarly, by following the procedure mentioned above, but employing a 100 mM sodium phosphate buffer (pH 6.0; containing 1.33 mM EDTA Na2) as a buffer for measurement, a 0.02 μM solution of cathepsin B (derived from bovine spleen, Sigma) in the same buffer as an enzyme solution and a 200 μM solution of 7-(N-benzyloxycarbonyl-phenylaranyl-arginyl)-4-methylcoumarinamide (Peptide Institute, Inc.) in the same buffer as a substrate solution. Each fluorescence (f1, f2 and f3) was also determined, respectively.
as §1

T1 sequence (O70196 whole entry): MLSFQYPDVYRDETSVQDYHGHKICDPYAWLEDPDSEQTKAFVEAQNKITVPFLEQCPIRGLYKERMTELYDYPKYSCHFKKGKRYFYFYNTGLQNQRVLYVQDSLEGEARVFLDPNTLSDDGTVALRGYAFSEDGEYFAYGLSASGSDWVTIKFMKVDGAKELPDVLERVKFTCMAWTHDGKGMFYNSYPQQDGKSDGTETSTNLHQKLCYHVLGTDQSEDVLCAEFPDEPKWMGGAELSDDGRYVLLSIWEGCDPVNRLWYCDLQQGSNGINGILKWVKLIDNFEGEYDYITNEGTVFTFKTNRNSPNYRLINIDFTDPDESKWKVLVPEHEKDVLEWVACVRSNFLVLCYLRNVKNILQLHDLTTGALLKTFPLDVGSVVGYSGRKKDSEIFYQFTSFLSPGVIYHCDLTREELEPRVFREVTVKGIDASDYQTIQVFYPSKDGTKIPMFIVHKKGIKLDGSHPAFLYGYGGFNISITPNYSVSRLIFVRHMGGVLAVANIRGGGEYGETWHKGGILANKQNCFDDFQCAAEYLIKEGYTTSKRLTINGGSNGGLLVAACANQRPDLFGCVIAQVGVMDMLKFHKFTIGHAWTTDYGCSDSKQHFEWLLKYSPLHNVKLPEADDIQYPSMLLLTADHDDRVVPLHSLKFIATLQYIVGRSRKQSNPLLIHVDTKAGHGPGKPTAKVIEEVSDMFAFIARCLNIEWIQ
T4 sequence (P00772 27-266): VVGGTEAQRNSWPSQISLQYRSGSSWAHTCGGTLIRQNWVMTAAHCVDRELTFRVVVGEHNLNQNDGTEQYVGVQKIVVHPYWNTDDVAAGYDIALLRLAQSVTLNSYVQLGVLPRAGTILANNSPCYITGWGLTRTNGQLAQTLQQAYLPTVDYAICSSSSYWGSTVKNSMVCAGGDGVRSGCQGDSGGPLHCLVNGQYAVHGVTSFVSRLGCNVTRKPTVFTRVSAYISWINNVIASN

O=C[C@@H]1CCCN1C(=O)[C@@H]1CCCN1C(=O)CN1CCCC1=O [Compound 4, N-[(2-Oxo-1-pyrrolidinyl)acetyl]-L-prolyl-L-prolinal]
inhibition at 0.01 µM [1]: 100%
IC50 [1]: 0.4 nM
inhibition at 0.01 µM [2]: 0%
inhibition at 0.01 µM [3]: 0%
Inhibition rate, leucine aminopeptidase ([4]; 1 × 10^-8 M): 0%
inhibition at 0.01 µM [5]: 0%
inhibition at 0.01 µM [6]: 0%

O=C[C@@H]1CSCN1C(=O)[C@@H]1CCCN1C(=O)CN1CCCC1=O [Compound 5, N-[(2-Oxo-1-pyrrolidinyl)acetyl]-L-prolyl-L-thioprolinal]
IC50 [1]: 3 nM

O=C[C@@H]1CCCN1C(=O)[C@@H]1CSCN1C(=O)CN1CCCC1=O [Compound 6, N-[(2-Oxo-1-pyrrolidinyl)acetyl]-L-thioprolyl-L-prolinal]
IC50 [1]: 1.5 nM

O=C[C@@H]1CSCN1C(=O)[C@@H]1CSCN1C(=O)CN1CCCC1=O [Compound 7, N-[(2-Oxo-1-pyrrolidinyl)acetyl]-L-thioprolyl-L-thioprolinal]
IC50 [1]: 5 nM

O=C1CCCN1CC(=O)N1CCC[C@H]1C(=O)N1CCSC1 [Compound 8, 3-{N-[(2-Oxo-1-pyrrolidinyl)acetyl]-L-prolyl}thiazolidine]
inhibition at 10 µM [1]: 96%
IC50 [1]: 200 nM
inhibition at 10 µM [2]: 0%
inhibition at 10 µM [3]: 0%
Inhibition rate, leucine aminopeptidase ([4]; 1 × 10^-5 M): 0%
inhibition at 10 µM [5]: 0%
inhibition at 10 µM [6]: 0%

O=C1CCCN1CC(=O)N1CSC[C@H]1C(=O)N1CCSC1 [Compound 9, 3-{N-[(2-Oxo-1-pyrrolidinyl)acetyl]-L-thioprolyl}thiazolidine]
inhibition at 10 µM [1]: 97%
IC50 [1]: 150 nM
inhibition at 10 µM [2]: 0%
inhibition at 10 µM [3]: 0%
Inhibition rate, leucine aminopeptidase ([4]; 1 × 10^-5 M): 0%
inhibition at 10 µM [5]: 0%
inhibition at 10 µM [6]: 0%

O=C[C@@H]1CCCN1C(=O)CCC(=O)N1CCCC1=O [Compound 10]
IC50 [1]: 70 nM

O=C[C@@H]1CCCN1C(=O)CCC(=O)NCCCN1CCCC1=O [Compound 11, N-{4-Oxo-4-[3-(2-oxo-1-pyrrolidinyl)propylamino]butanoyl}-L-prolinal]
inhibition at 1 µM [1]: 97%
IC50 [1]: 25 nM
inhibition at 1 µM [2]: 0%
inhibition at 1 µM [3]: 0%
Inhibition rate, leucine aminopeptidase ([4]; 1 × 10^-6 M): 0%
inhibition at 1 µM [5]: 0%
inhibition at 1 µM [6]: 0%

O=C([C@@H]1CCCN1C(=O)OCc1ccccc1)N1CCC[C@H]1C=NO [Compound 12, (2S)-1-(N-Benzyloxycarbonyl-L-prolyl)-2-pyrrolidinecarboxaldehyde oxime]
inhibition at 10 µM [1]: 100%
IC50 [1]: 450 nM
inhibition at 10 µM [2]: 0%
inhibition at 10 µM [3]: 0%
Inhibition rate, leucine aminopeptidase ([4]; 1 × 10^-5 M): 0%
inhibition at 10 µM [5]: 0%
inhibition at 10 µM [6]: 0%

CC(=O)ON=C[C@@H]1CCCN1C(=O)[C@@H]1CCCN1C(=O)OCc1ccccc1 [Compound 15, (2S)-1-(N-Benzyloxycarbonyl-L-prolyl)-2-pyrrolidinecarboxaldehyde O-acetyloxime]
inhibition at 1 µM [1]: 100%
IC50 [1]: 4.5 nM
inhibition at 1 µM [2]: 0%
inhibition at 1 µM [3]: 0%
Inhibition rate, leucine aminopeptidase ([4]; 1 × 10^-6 M): 0%
inhibition at 1 µM [5]: 0%
inhibition at 1 µM [6]: 0%

CC(=O)ON=C[C@@H]1CSCN1C(=O)[C@@H]1CCCN1C(=O)OCc1ccccc1 [Compound 16, (4R)-3-(N-Benzyloxycarbonyl-L-prolyl)-4-thiazolidinecarboxaldehyde O-acetyloxime]
IC50 [1]: 100 nM

CC(=O)ON=C[C@@H]1CSCN1C(=O)[C@@H]1CSCN1C(=O)OCc1ccccc1 [Compound 17, (4R)-3-(N-Benzyloxycarbonyl-L-thioprolyl)-4-thiazolidinecarboxaldehyde O-acetyloxime]
IC50 [1]: 310 nM

O=C([C@@H]1CCCN1C(=O)OCc1ccccc1)N1CCC[C@H]1C=NOCc1ccccc1 [Compound 18, (2S)-1-(N-Benzyloxycarbonyl-L-prolyl)-2-pyrrolidinecarboxaldehyde O-benzyloxime]
inhibition at 10 µM [1]: 100%
IC50 [1]: 40 nM
inhibition at 10 µM [2]: 0%
inhibition at 10 µM [3]: 0%
Inhibition rate, leucine aminopeptidase ([4]; 1 × 10^-5 M): 0%
inhibition at 10 µM [5]: 0%
inhibition at 10 µM [6]: 0%

N#C[C@@H]1CCCN1C(=O)[C@@H]1CCCN1C(=O)OCc1ccccc1 [Compound 19, (2S)-1-(N-Benzyloxycarbonyl-L-prolyl)-2-cyanopyrrolidine]
inhibition at 0.01 µM [1]: 100%
IC50 [1]: 0.35 nM
inhibition at 0.01 µM [2]: 0%
inhibition at 0.01 µM [3]: 0%
Inhibition rate, leucine aminopeptidase ([4]; 1 × 10^-8 M): 0%
inhibition at 0.01 µM [5]: 0%
inhibition at 0.01 µM [6]: 0%

N#C[C@@H]1CSCN1C(=O)[C@@H]1CSCN1C(=O)OCc1ccccc1 [Compound 20, (4R)-3-(N-Benzyloxycarbonyl-L-thioprolyl)-4-cyanothiazolidine]
IC50 [1]: 3.2 nM

CC(=O)ON=C[C@@H]1CSCN1C(=O)[C@@H]1CCCN1C(=O)CN1CCCC1=O [Compound 23, (4R)-3-{N-[(2-Oxo-1-pyrrolidinyl)acetyl]-L-prolyl}-4-thiazolidinecarboxaldehyde O-acetyloxime]
IC50 [1]: 640 nM

N#C[C@@H]1CSCN1C(=O)[C@@H]1CCCN1C(=O)CN1CCCC1=O [Compound 24, (4R)-3-{N-[(2-Oxo-1-pyrrolidinyl)acetyl]-L-prolyl}-4-cyanothiazolidine]
IC50 [1]: 34 nM
